# Data reported in paper PMC9870775, “Potent Dual Polymerase/Exonuclease Inhibitory Activities of Antioxidant Aminothiadiazoles Against the COVID-19 Omicron Virus: A Promising In Silico/In Vitro Repositioning Research Study” (Molecular Biotechnology, 2023).
# “And” between values parts separate entries of the source, which are not always exact repeats. Equal values may be shown once. Read-outs that look alike come from different tables or passages of the source.
# Tested on: SARS-CoV-2 (Omicron variant, B.1.1.529.1/BA.1 sublineage)
# Assay: microbe, parasite or virus in culture
# Type: cell-based
# Conditions: for EC50 / EC90: Severe acute respiratory syndrome coronavirus 2, Vero C1008, 48 h; for EC90: read-out: 90% Reduction in Infectious Virus (EC90)
# [1] = read-out: 50% Reduction in Infectious Virus (EC50)
# [2] = read-out: 50% Reduction in Viral RNA Copy (EC50)
# [3] = after starting administration and treatment
SMILES,100% CPE Inhibitory Concentration (CPEIC100),EC50 [1] [nM],EC50 [2] [nM],EC90 [nM],Time to maximal effectiveness against the Omicron-variant particles [3] [h],Time to maximal effectiveness against the Omicron-variant particles [h]
"Nc1nnc([C@H](O)[C@@H](O)c2nnc(N)s2)s1 [Taroxaz-26, (1R,2R)-1,2-bis(5-amino-1,3,4-thiadiazol-2-yl)ethane-1,2-diol]",1.83 µM and 1.83 ± 0.07 µM,730 ± 30,770 ± 40,2340 ± 80,4 to 10,
"Nc1nnc(CC(O)(Cc2nnc(N)s2)c2nnc(N)s2)s1 [CoViTris2022, 1,2,3-tris(5-amino-1,3,4-thiadiazol-2-yl)propan-2-ol]",1.60 ± 0.06 µM,690 ± 30,700 ± 40,2010 ± 70,,4 to 10
"Nc1nnc(-c2cnc3cc(Cl)ccc3c2O)s1 [ChloViD2022, 3-(5-amino-1,3,4-thiadiazol-2-yl)-7-chloroquinolin-4-ol]",1.09 µM and 1.09 ± 0.04 µM,410 ± 20,440 ± 20,1530 ± 50,4 to 10,
"CC(C)C(=O)OC[C@H]1O[C@@H](n2ccc(NO)nc2=O)[C@H](O)[C@@H]1O [Molnupiravir, molnupiravir, reference compound]",6.25 µM and 6.25 ± 0.31 µM,,,9160 ± 370,,
